Experimental data reported in the Deep4Chem optical property database.

Test: solvent given as SMILES

`COc1ccc(C(=O)/C=C/c2ccc(N(C)C)cc2)cc1OC` gave an absorption maximum (in C1CCOC1) of 403 nm, an absorption maximum (in CC#N) of 412 nm and an absorption maximum (in CC(=O)O) of 426 nm. The absorption maximum (in CC(C)=O) was 408 nm, the absorption maximum (in CCO) was 419 nm and the absorption maximum (in CN(C)C=O) was 416 nm. For the same molecule, the absorption maximum (in CO) was 421 nm, the absorption maximum (in Cc1ccccc1) was 404 nm and the absorption maximum (in ClC(Cl)Cl) was 417 nm. The absorption maximum (in c1ccccc1) was 406 nm.
Work on `CCOC(=O)/C(C)=C/C1=C(c2ccc(C)cc2)C2=Nc3c(-c4ccc(C)cc4)c(Br)c(-c4ccc(C)cc4)n3[B-](F)(F)[N+]2=C1c1ccc(C)cc1` yielded an absorption maximum (in ClC(Cl)Cl) of 661 nm.
For `F[B-]1(F)OC(c2cccc(Br)c2)=Cc2c3ccccc3cc[n+]21`, the absorption maximum (in ClC(Cl)Cl) was 399.5 nm.
`CCCCCCc1ccsc1-c1ccc(-c2sc(C(=O)O)cc2CCCCCC)s1` gave an absorption maximum (in CC(C)=O) of 361 nm, an absorption maximum (in CCCCCC) of 357 nm and an absorption maximum (in CCO) of 352 nm. It also gave an absorption maximum (in CO) of 352 nm, an absorption maximum (in ClCCl) of 364 nm and an absorption maximum (in O) of 365 nm.
With `CCCCCC(=O)c1c2c(c(C(=O)CCCCC)c3c1OC1(CCCC1)O3)OC1(CCCC1)O2` the absorption maximum (in CC#N) was 444 nm, the absorption maximum (in CCCCCC) was 435 nm and the absorption maximum (in CCO) was 452 nm. The absorption maximum (in CO) was 452 nm and the absorption maximum (in ClCCl) was 449 nm.
In the case of `CN(C)c1ccc2c(-c3ccc(N)cc3C(=O)[O-])c3ccc(=[N+](C)C)cc-3oc2c1`, the absorption maximum (in CCO) is reported as 533 nm and the absorption maximum (in O) is reported as 544 nm.
`CCCC(=O)c1c(OCOC)c(OCOC)c(C(=O)CCC)c2c1OCO2` gave an absorption maximum (in CC#N) of 332 nm.
Molecule `CCCCC(CC)Cn1c2ccc(C(=C(C#N)C#N)c3ccccc3)cc2c2c(-c3ccc(Br)cc3)c3c(c(-c4ccc(Br)cc4)c21)c1cc(C(=C(C#N)C#N)c2ccccc2)ccc1n3CC(CC)CCCC` (centres undefined) has an absorption maximum (in C1CCOC1) of 460 nm, an absorption maximum (in CC#N) of 462 nm and an absorption maximum (in CCO) of 464 nm. For the same molecule, the absorption maximum (in CCOC(C)=O) was 457 nm, the absorption maximum (in CN(C)C=O) was 467 nm and the absorption maximum (in ClCCl) was 471 nm. For the same molecule, the absorption maximum (in c1ccccc1) was 458 nm.
Work on `CC(C)(C)c1ccc2c(c1)c1cc(C(C)(C)C)cc3c1n2-c1cc(-c2ccc(F)cc2)cc2c1B3c1cc(C(C)(C)C)cc3c4cc(C(C)(C)C)ccc4n-2c13` yielded an absorption maximum (in Cc1ccccc1) of 469.92 nm.
Work on `COc1cccc(OC)c1-c1c2ccc(=[N+]3CCN(C(=O)OC(C)(C)C)CC3)cc-2oc2cc(N3CCN(C(=O)OC(C)(C)C)CC3)ccc12` yielded an absorption maximum (in ClCCl) of 555 nm.
Work on `N#CCc1ccccc1-c1cc2ccccc2oc1=O` yielded an absorption maximum (in ClC(Cl)Cl) of 318 nm.
Work on `CC1=CS[C@]2(C)C1=C1C(=C3C(C)=C(c4ccc(-c5nc(-c6ccccc6)c(-c6ccccc6)[nH]5)cc4)S[C@]32C)C(F)(F)C(F)(F)C1(F)F` yielded an absorption maximum (in C1CCOC1) of 565 nm.
With `Oc1ccc(Br)cc1-c1nc2c(c3c1-c1ccccc1CC3)-c1ccccc1CC2` the absorption maximum (in ClCCl) was 345 nm.
`CCOC(=O)CSc1nc2c(c(C#N)c1C#N)CCCCCC2` showed an absorption maximum (in c1ccccc1) of 360 nm.
With `CCCCCCCCOc1cc(/C=C/c2cc(OCCCCCCCC)c(/C=C/c3cc(OCCCCCCCC)c(Br)cc3OCCCCCCCC)cc2OCCCCCCCC)c(OCCCCCCCC)cc1Br` the absorption maximum (in ClCCl) was 410 nm.
In the case of `CC(C)(C)C#Cc1cc2c(C#CC(C)(C)C)c(C#CC(C)(C)C)c3cc(C#CC(C)(C)C)cc4c(C#CC(C)(C)C)c(C#CC(C)(C)C)c(c1)c2c34`, the absorption maximum (in ClCCl) is reported as 383 nm.
`Cn1c(=O)cc(C(=O)c2ccccc2)c2sc(-c3ccc(C(F)(F)F)cc3)cc21` gave an absorption maximum (in CC#N) of 388 nm and an absorption maximum (in ClCCl) of 398 nm.
`COc1cc2cc(/C=C/c3ccc(/C=C(\C#N)C(=O)O)cc3)c(=O)oc2cc1OC` showed an absorption maximum (in CC#N) of 400 nm.
`O=C(O)CC[N+]1=c2cc3c(cc2CCC1)=Cc1c(c2cc4c5c(c2oc1=O)CCCN5CCC4)O3` showed an absorption maximum (in CC#N) of 619 nm, an absorption maximum (in CO) of 617 nm and an absorption maximum (in ClCCl) of 637 nm. For the same molecule, the absorption maximum (in O) was 608 nm.
For `C[n+]1ccc(/C=C/c2ccc(N(c3ccccc3)c3ccc(/C=C/c4cc[n+](C)cn4)cc3)cc2)nc1`, the absorption maximum (in CS(C)=O) was 500 nm, the absorption maximum (in O) was 525 nm and the absorption maximum (in OCC(O)CO) was 560 nm.
For `COc1ccc(/C=C/c2nc3ccccc3s2)cc1`, the absorption maximum (in C1CCCCC1) was 350 nm and the absorption maximum (in CO) was 350 nm.
Molecule `CC(=O)c1c(N[C@@H](CC(C)C)C(=O)O)c2ccc(N(C)C)cc2oc1=O` has an absorption maximum (in ClCCl) of 372 nm.
`CCOC(=O)c1cc(C(=O)OCC)c2c(C)ccc(O)c2n1` gave an absorption maximum (in CCO) of 369 nm.
For `CCCCN(CCCC)c1ccc(/C=C/c2ccc3nc(/C=C/c4nc5ccc(/C=C/c6ccc(N(CCCC)CCCC)cc6)cc5n(CCC)c4=O)c(=O)n(CCC)c3c2)cc1`, the absorption maximum (in C1COCCO1) was 528 nm and the absorption maximum (in ClCCl) was 549 nm.
Molecule `C(=C\c1cnccn1)/c1ccc(N(c2ccccc2)c2ccccc2)cc1` has an absorption maximum (in C1CCOC1) of 393 nm, an absorption maximum (in CC#N) of 391 nm and an absorption maximum (in CS(C)=O) of 400 nm. The absorption maximum (in ClCCl) was 394 nm.
For `c1ccc(-c2nc(-c3ccc(N4c5ccccc5Sc5ccccc54)cc3)nn2-c2ccc(N3c4ccccc4Sc4ccccc43)cc2)nc1`, the absorption maximum (in ClCCl) was 377 nm.
`CCC1(CC)c2cc(B(c3c(C)cc(C)cc3C)c3c(C)cc(C)cc3C)ccc2-c2ccc(N(c3ccccc3)c3ccc4c(c3)C(CC)(CC)c3cc(B(c5c(C)cc(C)cc5C)c5c(C)cc(C)cc5C)ccc3-4)cc21` showed an absorption maximum (in C1CCOC1) of 422 nm, an absorption maximum (in CC#N) of 417 nm and an absorption maximum (in CC(C)=O) of 418 nm. For the same molecule, the absorption maximum (in CCCCCC) was 422 nm, the absorption maximum (in CN(C)C=O) was 422 nm and the absorption maximum (in Cc1ccccc1) was 424 nm. It also gave an absorption maximum (in ClC(Cl)Cl) of 422 nm.
